Results published in patent US10753938B2, “Beta-catenin inhibitors in cancer immunotherapy” (The University of Chicago, priority 2015, dated 2020).

Columns and labels:
[1] = system: skin-derived CD11c^+CD103^+DCs; experiment: Transwell migration assay; assay type: cell-based, mouse
Method: Dendritic cell populations were isolated from lymph nodes and skin of naïve 6 week-old C57BL/6 mice. For this purpose, skin tissue was digested in a similar way as tumor tissue and\ cells from skin and lymph node were stained using the previously described protocol for cell sorting. Subsequently, living, CD45^+, CD11c^+, CD8α^− or CD8α^+ cells were isolated from the lymph node sample as well as living, CD45^+, CD11c^+, CD103^+ from skin samples. Migration assays were performed as described previously with minor adaptations using 5×10^5 cells/well and pre-treatment of DC with pertussis toxin (Sigma) at a final concentration of 20 ng/ml for 1.5 h in indicated (Spranger et al. Journal of immunology 185, 738-747 (2010); herein incorporated by reference in its entirety). As a migration stimulus, CCL4 (R&D) was added to RPMI complete medium at 500 ng/ml or 48 h conditioned media from BP or BPC cell lines were used. At the endpoint, cells from the lower compartment as well as the trans-well were harvested and counted using a standard Neubauer counting chamber. Percentage of migrated cells was calculated as followed: count lower-well/(count upper-well+ count lower-well)*100; with the sum of trans-well and lower well-being >90% of the input cell count.

[2] = system: β-catenin-negative tumors (BP-SIY); experiment: Migration of pertussis toxin-pretreated effector 2C T cells into tumor; assay type: in vivo, mouse; conditions: T cells treated 12 h with PTX before injection
Method: For adoptive T cell transfer experiments, tumor development was induced and transfer of 1×10^6 or 10×10^6 T cells was performed when tumors reached 600-1000 mm^3 (approx. 5-6 weeks after induction). Transferred T cells were isolated from gender-matched 2C donor mice using the Miltenyi CD8^+ enrichment Kit II for untouched CD8^+ T cell isolation. After isolation, cells were activated for three days through plate-bound CD3 (0.2 μg/ml; 145-2C11 clone; Biolegend) and CD28 (0.5 μg/ml; 37.51 clone; BD) antibodies. Following activation, T cells were stained with 1 μm CFSE-solution (eBioscience) for 8 min at 37° C. before intravenous injection. Tumor tissue, tumor-draining LNs, and spleen were harvested 3 days following adoptive transfer of T cells and used for flow cytometric analysis. […] For tumor tissues, the entirety of each sample was acquired and total number of CD3^+CD8^+ T cells and transferred 2C cells was assessed. The percentage 2C cells was calculated as [(100/CD3^+/CD8^+ T cells)*2C] and also the number of 2C cells per gram tumor. […]
To assess if lack of T cell infiltration was due to a defect in effector T cell recruitment, an adoptive T cell transfer approach was used, transferring in vitro-activated effector 2C T cells into tumor bearing BP-SIY and BPC-SIY mice. As a first assessment, only the capacity of the effector T cells to migrate into the tumor within 72 h was analyzed. […]

Molecule | DC migration in response to CCL4 ([1]; pretreatment of DC with pertussis toxin) | migration of effector 2C T cells into tumor [2] | DC migration ([1]; CCL4 as migration stimulus)
pertussis toxin | eliminated | completely block the migration | 
recombinant murine CCL4: CCL4 (R&D) added as migration stimulus at 500 ng/ml (protein) APMGSDPPTSCCFSYTSRQLHRSFVMDYYETSSLCSKPAVVFLTKRGRQICANPSEPWVTEYMSDLELN |  |  | migrated in response to CCL4
